Here are results for four molecules from ChEMBL document CHEMBL1201861, “Genomics of Drug Sensitity in Cancer screening data, Wellcome Trust Sanger Institute”.

What all share (assay type): functional, cell-based
One experiment relates to ST486. In words: SANGER: Inhibition of human ST486 cell growth in a cell viability assay.
A further experiment has as its system Daudi. In words: cells. The settings on record: Homo sapiens.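 Further: growth inhibition of Daudi cells, read out by a viability assay.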
The next experiment relates to CMK. In words: cells. The note with it: Homo sapiens.
In the next experiment the test system is SIMA. In words: cells. The note with it: Homo sapiens.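 Further: growth inhibition of SIMA cells, measured with a cell viability readout.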
The next experiment relates to SK-MM-2. In words: cells. The note with it: Homo sapiens.
Another experiment has as its system NCI-H1436. Kind of experiment: cells. The note with it: Homo sapiens.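 Further: growth suppression of human NCI-H1436 cells, determined with a cell viability readout.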
Another experiment deals with COR-L279. In words: SANGER: Inhibition of human COR-L279 cell growth in a cell viability assay.
Another experiment deals with NCI-H64. In words: cells. The note with it: Homo sapiens.
The subject of another experiment is EB-3. Kind of experiment: cells. The settings on record: Homo sapiens.
Another experiment concerns L-540. Kind of experiment: cells. The settings on record: Homo sapiens.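 Further: growth inhibition of the human L-540 cell line, read out with a viability assay.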
For the next experiment, the system named is TE-441-T. Kind of experiment: cells. The note with it: Homo sapiens.
The test system of the next experiment is SCLC-21H. Kind of experiment: cells. The note with it: Homo sapiens.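 Further: growth inhibition of cultured human SCLC-21H cells, read out with a cell viability assay.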
In another experiment the test system is NALM-6. In words: cells. The note with it: Homo sapiens.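 Further: growth inhibition of NALM-6 cells, read out with a cell viability assay.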
The next experiment deals with SNU-C1. In words: cells. The note with it: Homo sapiens.
The subject of the next experiment is KMS-12-PE. In words: cells. The settings on record: Homo sapiens.
The test system of the next experiment is SR. In words: cells. The settings on record: Homo sapiens.
The subject of the next experiment is NCI-H2196. Kind of experiment: cells. The note with it: Homo sapiens.
Another experiment has as its system NCI-H716. In words: cells. The note with it: Homo sapiens.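 Further: growth inhibition of human NCI-H716 cells, measured by a cell viability assay.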
A further experiment relates to BOKU. Kind of experiment: cells. The settings on record: Homo sapiens.
A further experiment deals with HCC 2998. In words: cells. The note with it: Homo sapiens.
A further experiment relates to D-392MG. Kind of experiment: cells. The settings on record: Homo sapiens.
The test system of the next experiment is NCI-H1793. Kind of experiment: cells. The settings on record: Homo sapiens.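 Further: cell growth inhibition, read out by a cell viability assay.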
For the next experiment, the system named is A2058. In words: cells. The note with it: Homo sapiens.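 Further: reduction of A2058 cell growth, read out with a viability assay.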
The next experiment relates to 786-0. Kind of experiment: cells. The settings on record: Homo sapiens.
The next experiment concerns OAW-42. In words: cells. The settings on record: Homo sapiens.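 Further: growth inhibition of OAW-42 cells, read out with a cell viability assay.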
The subject of another experiment is MC-IXC. Kind of experiment: cells. The settings on record: Homo sapiens.
The subject of another experiment is MEL-HO. In words: cells. The settings on record: Homo sapiens.
For another experiment, the system named is VM-CUB-1. In words: cells. The settings on record: Homo sapiens.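 Further: cell viability assay measuring growth inhibition of the human VM-CUB-1 cell line.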
In the next experiment the test system is HuP-T4. In words: cells. The note with it: Homo sapiens.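 Further: cell viability assay measuring how much HuP-T4 cell growth is inhibited.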
The next experiment has as its system HCC38. In words: cells. The note with it: Homo sapiens.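 Further: cell viability assay on the human HCC38 cell line, with IC50 marking the concentration that inhibits cell growth.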
The subject of the next experiment is A-427. Kind of experiment: cells. The note with it: Homo sapiens.
The test system of the next experiment is NCI-H810. In words: cells. The note with it: Homo sapiens.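 Further: IC50 reflects inhibition of cancer cell line growth, read out with a cell viability assay.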
A further experiment relates to MDA-MB-361. In words: cells. The note with it: Homo sapiens.
The next experiment relates to NCI-H460. Kind of experiment: cells. The settings on record: Homo sapiens.
The next experiment concerns 8305C. Kind of experiment: cells. The settings on record: Homo sapiens.
For a further experiment, the system named is Daoy. In words: cells. The settings on record: Homo sapiens.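 Further: daoy cell growth inhibition, read out as cell viability.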
For another experiment, the system named is Calu-3. Kind of experiment: cells. The note with it: Homo sapiens.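 Further: growth inhibition of human Calu-3 cells, determined with a cell viability assay.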
Another experiment concerns HuP-T3. In words: cells. The note with it: Homo sapiens.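 Further: HuP-T3 cell growth inhibition, read out with a cell viability assay.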
For the next experiment, the system named is SiHa. Kind of experiment: cells. The settings on record: Homo sapiens.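 Further: Viability-based readout of growth inhibition in SiHa cells.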
Another experiment has as its system BCPAP. Kind of experiment: cells. The note with it: Homo sapiens.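 Further: growth inhibition of BCPAP cells, read out in a cell viability assay.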
The subject of a further experiment is MKN-1. In words: cells. The note with it: Homo sapiens.
For another experiment, the system named is A-431. Kind of experiment: cells. The settings on record: Homo sapiens.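 Further: growth inhibition of A-431 cells, determined with a cell viability read-out.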
The next experiment deals with HSC-2. Kind of experiment: cells. The settings on record: Homo sapiens.
Another experiment concerns A2780. In words: cells. The note with it: Homo sapiens.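 Further: growth inhibition of A2780 cells, read out with a cell viability assay.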
For a further experiment, the system named is SW1710. In words: cells. The settings on record: Homo sapiens.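 Further: growth inhibition of SW1710 cells, determined with a cell viability assay.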
The subject of the next experiment is SK-OV-3. In words: cells. The note with it: Homo sapiens.
The next experiment relates to NCI-H2087. Kind of experiment: cells. The settings on record: Homo sapiens.
A further experiment has as its system HO-1-N-1. In words: cells. The settings on record: Homo sapiens.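 Further: growth inhibition of human HO-1-N-1 cells, read out with a cell viability assay.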
Another experiment deals with SN12C. In words: cells. The note with it: Homo sapiens.
The next experiment concerns H4. Kind of experiment: cells. The note with it: Homo sapiens.
The test system of the next experiment is HOS. In words: cells. The settings on record: Homo sapiens.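 Further: growth inhibition of human HOS cells, read out with a cell viability assay.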
Another experiment relates to DMS-273. Kind of experiment: cells. The note with it: Homo sapiens.
For the next experiment, the system named is KU-19-19. In words: cells. The settings on record: Homo sapiens.
Another experiment concerns YKG-1. Kind of experiment: cells. The settings on record: Homo sapiens.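 Further: cell growth inhibition, read out with a viability assay.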
The test system of another experiment is AN3-CA. In words: cells. The note with it: Homo sapiens.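 Further: growth inhibition of human AN3-CA cells measured by a cell viability assay.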
The subject of a further experiment is 23132-87. In words: cells. The note with it: Homo sapiens.
A further experiment concerns KP-N-YN. In words: cells. The note with it: Homo sapiens.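 Further: growth inhibition of KP-N-YN cells, read out with a cell viability assay.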

Description for 23132-87: SANGER: Inhibition of human 23132-87 cell growth in a cell viability assay.
Description for 786-0: SANGER: Inhibition of human 786-0 cell growth in a cell viability assay.
Description for 8305C: SANGER: Inhibition of human 8305C cell growth in a cell viability assay.
Description for A-427: SANGER: Inhibition of human A427 cell growth in a cell viability assay.
Description for A-431: SANGER: Inhibition of human A431 cell growth in a cell viability assay.
Description for A2058: SANGER: Inhibition of human A2058 cell growth in a cell viability assay.
Description for A2780: SANGER: Inhibition of human A2780 cell growth in a cell viability assay.
Description for AN3-CA: SANGER: Inhibition of human AN3-CA cell growth in a cell viability assay.
Description for BCPAP: SANGER: Inhibition of human BCPAP cell growth in a cell viability assay.
Description for BOKU: SANGER: Inhibition of human BOKU cell growth in a cell viability assay.
Description for CMK: SANGER: Inhibition of human CMK cell growth in a cell viability assay.
Description for Calu-3: SANGER: Inhibition of human Calu-3 cell growth in a cell viability assay.
Description for DMS-273: SANGER: Inhibition of human DMS-273 cell growth in a cell viability assay.
Description for Daoy: SANGER: Inhibition of human Daoy cell growth in a cell viability assay.
Description for Daudi: SANGER: Inhibition of human Daudi cell growth in a cell viability assay.
Description for EB-3: SANGER: Inhibition of human EB-3 cell growth in a cell viability assay.
Description for HCC 2998: SANGER: Inhibition of human HCC2998 cell growth in a cell viability assay.
Description for HCC38: SANGER: Inhibition of human HCC38 cell growth in a cell viability assay.
Description for HO-1-N-1: SANGER: Inhibition of human HO-1-N-1 cell growth in a cell viability assay.
Description for HOS: SANGER: Inhibition of human HOS cell growth in a cell viability assay.
Description for HSC-2: SANGER: Inhibition of human HSC-2 cell growth in a cell viability assay.
Description for HuP-T3: SANGER: Inhibition of human HuP-T3 cell growth in a cell viability assay.
Description for HuP-T4: SANGER: Inhibition of human HuP-T4 cell growth in a cell viability assay.
Description for KMS-12-PE: SANGER: Inhibition of human KMS-12-PE cell growth in a cell viability assay.
Description for KP-N-YN: SANGER: Inhibition of human KP-N-YN cell growth in a cell viability assay.
Description for KU-19-19: SANGER: Inhibition of human KU-19-19 cell growth in a cell viability assay.
Description for L-540: SANGER: Inhibition of human L-540 cell growth in a cell viability assay.
Description for MC-IXC: SANGER: Inhibition of human MC-IXC cell growth in a cell viability assay.
Description for MEL-HO: SANGER: Inhibition of human MEL-HO cell growth in a cell viability assay.
Description for MKN-1: SANGER: Inhibition of human MKN1 cell growth in a cell viability assay.
Description for NALM-6: SANGER: Inhibition of human NALM-6 cell growth in a cell viability assay.
Description for NCI-H1436: SANGER: Inhibition of human NCI-H1436 cell growth in a cell viability assay.
Description for NCI-H1793: SANGER: Inhibition of human NCI-H1793 cell growth in a cell viability assay.
Description for NCI-H2087: SANGER: Inhibition of human NCI-H2087 cell growth in a cell viability assay.
Description for NCI-H2196: SANGER: Inhibition of human NCI-H2196 cell growth in a cell viability assay.
Description for NCI-H460: SANGER: Inhibition of human NCI-H460 cell growth in a cell viability assay.
Description for NCI-H64: SANGER: Inhibition of human NCI-H64 cell growth in a cell viability assay.
Description for NCI-H716: SANGER: Inhibition of human NCI-H716 cell growth in a cell viability assay.
Description for NCI-H810: SANGER: Inhibition of human NCI-H810 cell growth in a cell viability assay.
Description for OAW-42: SANGER: Inhibition of human OAW-42 cell growth in a cell viability assay.
Description for SCLC-21H: SANGER: Inhibition of human SCLC-21H cell growth in a cell viability assay.
Description for SIMA: SANGER: Inhibition of human SIMA cell growth in a cell viability assay.
Description for SK-MM-2: SANGER: Inhibition of human SK-MM-2 cell growth in a cell viability assay.
Description for SK-OV-3: SANGER: Inhibition of human SK-OV-3 cell growth in a cell viability assay.
Description for SN12C: SANGER: Inhibition of human SN12C cell growth in a cell viability assay.
Description for SNU-C1: SANGER: Inhibition of human SNU-C1 cell growth in a cell viability assay.
Description for SR: SANGER: Inhibition of human SR cell growth in a cell viability assay.
Description for SW1710: SANGER: Inhibition of human SW1710 cell growth in a cell viability assay.
Description for SiHa: SANGER: Inhibition of human SiHa cell growth in a cell viability assay.
Description for TE-441-T: SANGER: Inhibition of human TE-441-T cell growth in a cell viability assay.
Description for VM-CUB-1: SANGER: Inhibition of human VM-CUB-1 cell growth in a cell viability assay.
Description for YKG-1: SANGER: Inhibition of human YKG-1 cell growth in a cell viability assay.

In the case of `CCNc1cc(N[C@H]2CC[C@@H](O)CC2)nc(Nc2ccc3c(ccn3Cc3ccccc3)c2)n1`, the IC50 in the experiment on ST486, with Daudi, in the experiment on CMK, in the experiment with SIMA, in the experiment with SK-MM-2 and with NCI-H1436 was > 5120 nM in each case. In addition, the IC50 in the experiment with COR-L279, with NCI-H64, in the experiment with EB-3, in the experiment on L-540, with TE-441-T and in the experiment on SCLC-21H was > 5120 nM each time. Further, the concentration for half-maximal inhibition (IC50) in the experiment on NALM-6 was 4980 nM; with SNU-C1, > 5120 nM; in the experiment on KMS-12-PE, > 5120 nM; in the experiment with SR it was > 5120 nM; in the experiment on NCI-H2196, > 5120 nM; with NCI-H716 it was > 5120 nM. In addition, the IC50 with BOKU is > 5120 nM.

For the molecule `Cc1ccc(NC(=O)c2cccc(C(C)(C)C#N)c2)cc1Nc1ccc2ncn(C)c(=O)c2c1`, the IC50 in the experiment with ST486 was 1390 nM; in the experiment on Daudi, > 4000 nM; in the experiment on CMK, > 4000 nM; with SIMA, > 4000 nM; in the experiment with SK-MM-2 it was > 4000 nM; in the experiment with NCI-H1436, > 4000 nM. Moreover, the IC50 with COR-L279 is > 4000 nM; with NCI-H64, > 4000 nM; in the experiment on EB-3, > 4000 nM; in the experiment with L-540 it was 3960 nM; in the experiment with TE-441-T it was 2810 nM; in the experiment with HCC 2998, 222 nM. Moreover, the IC50 with SCLC-21H is > 4000 nM; in the experiment on NALM-6, > 4000 nM; in the experiment on SNU-C1, > 4000 nM; with KMS-12-PE it was > 4000 nM; in the experiment on D-392MG it was 356 nM; in the experiment with SR, > 4000 nM. Moreover, the 50% inhibitory concentration (IC50) with NCI-H2196 and with NCI-H716 was > 4000 nM throughout.

Regarding `CC[C@@]1(O)C(=O)OCc2c1cc1n(c2=O)Cc2cc3ccccc3nc2-1` [CAMPTOTHECIN], the IC50 in the experiment with NCI-H1793 came to 27.2 nM; in the experiment on A2058 it was 3.6 nM; in the experiment on 786-0, 5.02 nM; in the experiment on OAW-42, 8.99 nM; in the experiment on MC-IXC, 0.513 nM; in the experiment on MEL-HO it was 7.63 nM. In addition, the IC50 in the experiment on VM-CUB-1 was 2.21 nM; with HuP-T4, 0.881 nM; in the experiment with HCC38 it was 12.9 nM; in the experiment on A-427 it was 4.25 nM; in the experiment on NCI-H810 it was 50.3 nM; with MDA-MB-361 it was 34.4 nM. Besides, the concentration for half-maximal inhibition (IC50) is 24.1 nM in the experiment on NCI-H460; 94 nM in the experiment with 8305C; 0.481 nM in the experiment with Daoy; 32.8 nM in the experiment with Calu-3; 36.4 nM with HuP-T3; 86.9 nM in the experiment with SiHa. The IC50 in the experiment on BCPAP is 3.04 nM; in the experiment on MKN-1, 37.9 nM; in the experiment with A-431 it was > 100 nM; in the experiment on HSC-2, 11.7 nM; in the experiment on A2780 it was 2.9 nM; in the experiment on SW1710 it was 33.6 nM. Moreover, the IC50 is > 100 nM in the experiment on SK-OV-3; 17.7 nM in the experiment on D-392MG; 5.07 nM with NCI-H2087; 0.838 nM in the experiment with HO-1-N-1; 4.5 nM in the experiment on SN12C; 0.615 nM with H4. Besides, the IC50 in the experiment with HOS turned out to be 1.4 nM; in the experiment on DMS-273, 6.07 nM; in the experiment on KU-19-19, 22 nM; in the experiment on YKG-1 it was 5.45 nM; in the experiment on AN3-CA it was 34 nM; in the experiment with 23132-87 it was 19.5 nM.

Turning to `CCn1c(-c2nonc2N)nc2cnc(Oc3cccc(NC(=O)c4ccc(OCCN5CCOCC5)cc4)c3)cc21` [GSK-269962A], the IC50 in the experiment with ST486 is > 2500 nM; in the experiment with Daudi it was 2100 nM; with CMK, 1010 nM; with SIMA it was > 2500 nM; in the experiment on SK-MM-2, > 2500 nM; with NCI-H1436, > 2500 nM. In addition, the IC50 with COR-L279 was 2070 nM; in the experiment on NCI-H64 it was > 2500 nM; in the experiment on KP-N-YN, > 2500 nM; with EB-3, > 2500 nM; in the experiment on L-540, > 2500 nM; with TE-441-T it was > 2500 nM. Further, the IC50 with HCC 2998 is > 2500 nM; with SCLC-21H it was > 2500 nM; with NALM-6 it was 1560 nM; in the experiment on SNU-C1, > 2500 nM; with KMS-12-PE, > 2500 nM; in the experiment with D-392MG, 1430 nM. The IC50 in the experiment on SR is < 9.77 nM; in the experiment on NCI-H2196 it was > 2500 nM; in the experiment with NCI-H716, > 2500 nM.

As usually defined, the IC50 is the concentration that inhibits the measured activity by half. High values mean weaker potency in that assay, low ones greater potency in that assay.
